Results from patent US6090839A, “Antidiabetic agents” (Merck & Co., Inc., priority 1997, dated 2000).

Tests used:
human PPARδ = biological target: T1, human PPARδ (Homo sapiens, UniProt Q03181); experiment: PPAR Receptor Binding Assay: [3H2]Example 11 Displacement Assay for PPARδ; settings: [3H2]Example 11, gst-PPARδ, ~16 h at 4° C., pH 7.2
T1 construct: The full length human cDNA for PPARγ2 and PPARδ were subcloned; made in house; host or cells: E. coli
T1 sequence (Q03181 1-441): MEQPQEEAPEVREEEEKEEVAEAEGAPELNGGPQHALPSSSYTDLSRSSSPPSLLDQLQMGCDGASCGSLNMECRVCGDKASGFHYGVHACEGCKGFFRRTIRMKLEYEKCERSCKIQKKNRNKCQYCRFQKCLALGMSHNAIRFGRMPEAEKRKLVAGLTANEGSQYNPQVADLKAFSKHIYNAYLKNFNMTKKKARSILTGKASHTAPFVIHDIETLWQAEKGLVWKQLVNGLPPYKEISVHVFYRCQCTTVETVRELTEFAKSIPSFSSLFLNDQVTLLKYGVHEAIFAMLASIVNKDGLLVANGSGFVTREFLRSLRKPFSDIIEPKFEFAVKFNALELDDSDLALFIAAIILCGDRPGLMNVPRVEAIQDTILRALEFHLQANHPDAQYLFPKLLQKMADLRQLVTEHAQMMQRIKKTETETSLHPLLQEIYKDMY
Description: (§1) Compounds of the instant invention which are useful for the above discussed treatments can be identified and/or characterized by employing the PPARδ, and γ binding assays. The assays are useful in predicting or quantitating in vivo effects having to do with the control or modulation of glucose, free fatty acid, triglyceride, insulin or cholesterol. To evaluate IC50 or EC50, values the compounds were titrated in the appropriate assay using different concentrations of the compound to be tested. To obtain the appropriate values (%Inhibition-IC50, or %Activation-EC50), the data resulting from the assays were then analyzed by determining the best fit of a 4 parameter function to the data using the Levenberg-Marquardt non-linear fitting algorithm in Kaleidagraph (Synergy Software, Reading, Pa). The human nuclear receptor cDNA for PPARδ (hPPARδ) has been cloned from a human osteosarcoma cell cDNA library and is fully described in A. Schmidt et al., Molecular Endocrinology, 6:1634-1641 (1992), herein incorporated by reference in its entirety. See A. Elbrecht et al., Biochem. and Biophy. Res. Comm. 224:431-437 (1996) and T. Sher et al., Biochem. 32:5598-5604 (1993) for a description of the human nuclear receptor gene PPARγ, and α.
The hPPARδ binding assay comprises the steps of: […]

human PPARγ2 = biological target: T2, human PPARγ2 (Homo sapiens, UniProt P37231); experiment: PPAR Receptor Binding Assay: [3H]AD-5075 Displacement Assay for PPARγ2; settings: [3H2]AD-5075, gst-PPARγ2, ~16 h at 4° C., pH 7.2
T2 construct: The full length human cDNA for PPARγ2 and PPARδ were subcloned; made in house; host or cells: E. coli
T2 sequence (P37231 1-505): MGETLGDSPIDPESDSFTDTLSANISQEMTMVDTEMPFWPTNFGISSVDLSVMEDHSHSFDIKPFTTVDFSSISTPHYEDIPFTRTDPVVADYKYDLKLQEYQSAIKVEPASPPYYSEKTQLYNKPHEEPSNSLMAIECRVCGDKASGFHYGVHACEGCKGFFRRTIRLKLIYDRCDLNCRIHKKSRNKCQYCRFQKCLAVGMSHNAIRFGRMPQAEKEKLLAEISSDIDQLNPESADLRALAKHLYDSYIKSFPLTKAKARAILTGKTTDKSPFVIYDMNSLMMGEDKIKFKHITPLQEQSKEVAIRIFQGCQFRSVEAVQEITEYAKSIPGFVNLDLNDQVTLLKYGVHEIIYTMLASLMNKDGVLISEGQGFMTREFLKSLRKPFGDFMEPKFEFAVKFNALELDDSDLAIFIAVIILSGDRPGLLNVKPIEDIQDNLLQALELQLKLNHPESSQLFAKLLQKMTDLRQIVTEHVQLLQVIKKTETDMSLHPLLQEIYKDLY
Description: as §1
Human PPARγ2 and PPARδ, independently, were prepared as gst-fusion proteins in E. coli. […]

| Kd (human PPARδ) | Kd (human PPARγ2) | Structure (SMILES) |
| --- | --- | --- |
| ~1 nM | – | CCCc1c(OCCc2cc3c4c(ccc3o2)C(C(=O)O)CCC4)ccc2c(-c3ccccc3)noc12 (centres unmarked) [Example 11, 2-(2-(3-phenyl-7-propylbenz[4,5]isoxazol-6-yloxy)ethyl)-4,5,6,7-tetrahydronaphtho[2,1-b]furan-7-carboxylic acid] |
| – | ~1 nM | Cc1oc(-c2ccccc2)nc1C(O)COc1ccc(CC2SC(=O)NC2=O)cc1 (centres unmarked) [AD-5075] |
